Values joined by “and” are separate entries in the source; they are usually repeats but may differ in a detail not shown here. Equal values may be shown once.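 Step 1: Grow cells in 96-well plates. Step 2: Expose to compound for 48 hours at 5 concentrations. Step 3: Interpolate endpoints linearly; if unreached, use highest concentration. Here, GI50 denotes the concentration required for 50% inhibition of growth. TGI: total growth inhibition.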
What was measured:
Experiment in all cases: DTP human tumour cell line panel, 48 h
[1] = system: A498 renal
[2] = system: DLD-1 colon
[3] = system: HOP-18 NSCLC
[4] = system: HOP-62 NSCLC
[5] = system: SK-MEL-2 melanoma
[6] = system: SK-MEL-5 melanoma
[7] = system: SK-OV-3 ovarian
[8] = system: T-47D breast
[9] = system: U251 CNS
[10] = system: UACC-62 melanoma

Row | SMILES | TGI [1] | TGI [2] | TGI [3] | TGI [4] | TGI [5] | TGI [6] | TGI [7] | TGI [8] | TGI [9] | TGI [10] | GI50 [1] | GI50 [2] | GI50 [3] | GI50 [4] | GI50 [7] | GI50 [8] | GI50 [9] | GI50 [10] | GI50 [5] | GI50 [6]
1 | CCN(CC)CCC(=O)N1C/C(=C/c2ccccc2)C(=O)/C(=C\c2ccccc2)C1 | 11 µM | 2.82 µM | 9.19 µM | 26.1 µM | 5.08 µM | 3.98 µM | 20.9 µM | 4.07 µM | 1.9 µM | 4.92 µM | – | – | – | – | – | – | – | – | – | –
2 | CSC1SCC2C(=O)N(C)C(C(C)C)C(=O)OCC(NC(=O)c3cnc4ccccc4n3)C(=O)NC(C)C(=O)N(C)C1C(=O)N(C)C(C(C)C)C(=O)OCC(NC(=O)c1cnc3ccccc3n1)C(=O)NC(C)C(=O)N2C (configuration not stated) | – | 1.08 µM and 5.93 µM | – | – | 0.00126 µM | – | – | – | – | – | < 0.001 µM | 1.84e-05 µM | 9.66e-06 µM | < 0.001 µM | 1.74 nM | < 1 nM | < 0.001 µM | < 0.001 µM | – | –
3 | CCCCCCC/C=C1\CCC(CN(C)C)C1=O (configuration not stated) | 35.6 µM | 20.9 µM | 31.4 µM | 32.3 µM | 29.8 µM | 34 µM | 43 µM | 26.7 µM | 32.1 µM | 28.7 µM | – | – | – | – | – | – | – | – | – | –
4 | CC(C)c1cc(C(=O)[O-])c(O)c(C(C)C)c1.CC(C)c1cc(C(=O)[O-])c(O)c(C(C)C)c1.CC(C)c1cc(C(=O)[O-])c(O)c(C(C)C)c1.CC(C)c1cc(C(=O)[O-])c(O)c(C(C)C)c1.CC(C)c1cc(C(=O)[O-])c(O)c(C(C)C)c1.CC(C)c1cc(C(=O)[O-])c(O)c(C(C)C)c1.[Cu+2].[Mn+2].[Mn+2] | 82.2 µM | 35.9 µM | 29.1 µM | 42 µM | 42.6 µM | 32.3 µM | 16.1 µM | – | 22.7 µM | 34.4 µM | 34.1 µM | 17.8 µM | 13.3 µM | 21 µM | 2610 nM | – | 9.43 µM | 15.3 µM | 20.4 µM | 17.1 µM
5 | CC(=O)OC1(C#N)CC2OC1C1N=NN(C(=O)OC(C)(C)C)C21 (configuration not stated) | > 100 µM | > 31.6 µM | > 100 µM | > 100 µM | > 100 µM | > 31.6 µM | > 100 µM | – | > 100 µM | 42.2 µM | – | – | – | – | – | – | – | – | – | –
6 | CC(C)Cc1ccc(C(C)/C=C2\CCC(CN3CCCCC3)C2=O)cc1 (configuration not stated) | 28.2 µM | 5.13 µM | 30.6 µM | 17.6 µM | 27 µM | 27 µM | 34.9 µM | 45.5 µM | 4.94 µM | 24.2 µM | – | – | – | – | – | – | – | – | – | –

Reference: PubChem BioAssay (NCI)
